In ChEMBL document CHEMBL3885881, “DrugMatrix”:

Species on record: Rattus norvegicus
Experiment: DrugMatrix - Regimen: Daily Repeat
Type: toxicity, organism-based, Sprague-Dawley
Parameters: regimen Daily Repeat, gender Male, age 6-8 weeks
Details: in vivo, po, 0 mg/kg, route oral GAVAGE, dose level Control, vehicle 100 % WATER; for ABSOLUTE BASOPHIL / ABSOLUTE EOSINOPHIL / ABSOLUTE LYMPHOCYTE / ABSOLUTE MONOCYTE / ABSOLUTE SEGMENTED NEUTROPHIL / BASOPHIL / EOSINOPHIL / ERYTHROCYTE COUNT / HEMATOCRIT / HEMOGLOBIN / LEUKOCYTE COUNT / LYMPHOCYTE / MEAN CORPUSCULAR HEMOGLOBIN / MEAN CORPUSCULAR HEMOGLOBIN CONCENTRATION / MEAN CORPUSCULAR VOLUME / MONOCYTE / NEUTROPHIL / NUCLEATED RED BLOOD CELLS / PLATELET COUNT: tissue Blood; for ALANINE AMINOTRANSFERASE / ALBUMIN / ALKALINE PHOSPHATASE / ASPARTATE AMINOTRANSFERASE / BLOOD UREA NITROGEN / CARBON DIOXIDE / CHLORIDE / CHOLESTEROL / CREATINE PHOSPHOKINASE / CREATININE / GLUCOSE / LACTATE DEHYDROGENASE / LIPASE / PHOSPHORUS / POTASSIUM / SODIUM / TOTAL BILIRUBIN / TOTAL PROTEIN / URIC ACID: tissue Plasma

C[C@](N)(Cc1ccc(O)c(O)c1)C(=O)O [METHYLDOPA]
ABSOLUTE BASOPHIL (72 h, time 3 day): 0 CELLS/uL | ABSOLUTE EOSINOPHIL (72 h, time 3 day): 46 CELLS/uL | ABSOLUTE LYMPHOCYTE (72 h, time 3 day): 10225.67 CELLS/uL | ABSOLUTE MONOCYTE (72 h, time 3 day): 319.33 CELLS/uL | ABSOLUTE SEGMENTED NEUTROPHIL (72 h, time 3 day): 1242.33 CELLS/uL | BASOPHIL (72 h, time 3 day): 0% | EOSINOPHIL (72 h, time 3 day): 0.33% | ERYTHROCYTE COUNT (72 h, time 3 day): 5.17 x10E6/uL | HEMATOCRIT (72 h, time 3 day): 33.43% | HEMOGLOBIN (72 h, time 3 day): 12.55 G/DL | LEUKOCYTE COUNT (72 h, time 3 day): 11.83 x10E3/uL | LYMPHOCYTE (72 h, time 3 day): 86.5% | MEAN CORPUSCULAR HEMOGLOBIN (72 h, time 3 day): 24.35 pg | MEAN CORPUSCULAR HEMOGLOBIN CONCENTRATION (72 h, time 3 day): 37.57 G/DL | MEAN CORPUSCULAR VOLUME (72 h, time 3 day): 64.8 fL | MONOCYTE (72 h, time 3 day): 2.67% | NEUTROPHIL (72 h, time 3 day): 10.5% | NUCLEATED RED BLOOD CELLS (72 h, time 3 day): 0.17 /100WBC | PLATELET COUNT (72 h, time 3 day): 1026.17 x10E3/uL | ALANINE AMINOTRANSFERASE (72 h, time 3 day): 52.67 u/L | ALBUMIN (72 h, time 3 day): 4.17 G/DL | ALKALINE PHOSPHATASE (72 h, time 3 day): 331 u/L | ASPARTATE AMINOTRANSFERASE (72 h, time 3 day): 92.33 u/L | BLOOD UREA NITROGEN (72 h, time 3 day): 15.33 mg/dL | CARBON DIOXIDE (72 h, time 3 day): 26.17 mmol/L | CHLORIDE (72 h, time 3 day): 103.17 MEQ/L | CHOLESTEROL (72 h, time 3 day): 73.67 mg/dL | CREATINE PHOSPHOKINASE (72 h, time 3 day): 472.83 u/L | CREATININE (72 h, time 3 day): 0.29 mg/dL | GLUCOSE (72 h, time 3 day): 178.5 mg/dL | LACTATE DEHYDROGENASE (72 h, time 3 day): 244.83 u/L | LIPASE (72 h, time 3 day): 10.67 u/L | PHOSPHORUS (72 h, time 3 day): 12.45 mg/dL | POTASSIUM (72 h, time 3 day): 6.35 MEQ/L | SODIUM (72 h, time 3 day): 144.27 MEQ/L | TOTAL BILIRUBIN (72 h, time 3 day): 0.13 mg/dL | TOTAL PROTEIN (72 h, time 3 day): 5.77 G/DL | URIC ACID (72 h, time 3 day): 2.08 mg/dL | ABSOLUTE BASOPHIL (120 h, time 5 day): 0 CELLS/uL | ABSOLUTE EOSINOPHIL (120 h, time 5 day): 23.5 CELLS/uL | ABSOLUTE LYMPHOCYTE (120 h, time 5 day): 12797.33 CELLS/uL | ABSOLUTE MONOCYTE (120 h, time 5 day): 465.5 CELLS/uL | ABSOLUTE SEGMENTED NEUTROPHIL (120 h, time 5 day): 1313.67 CELLS/uL | BASOPHIL (120 h, time 5 day): 0% | EOSINOPHIL (120 h, time 5 day): 0.17% | ERYTHROCYTE COUNT (120 h, time 5 day): 5.76 x10E6/uL | HEMATOCRIT (120 h, time 5 day): 36.72% | HEMOGLOBIN (120 h, time 5 day): 13.72 G/DL | LEUKOCYTE COUNT (120 h, time 5 day): 14.6 x10E3/uL | LYMPHOCYTE (120 h, time 5 day): 87.5% | MEAN CORPUSCULAR HEMOGLOBIN (120 h, time 5 day): 23.8 pg | MEAN CORPUSCULAR HEMOGLOBIN CONCENTRATION (120 h, time 5 day): 37.35 G/DL | MEAN CORPUSCULAR VOLUME (120 h, time 5 day): 63.72 fL | MONOCYTE (120 h, time 5 day): 3.17% | NEUTROPHIL (120 h, time 5 day): 9.17% | NUCLEATED RED BLOOD CELLS (120 h, time 5 day): 0.33 /100WBC | PLATELET COUNT (120 h, time 5 day): 1270.67 x10E3/uL | ALANINE AMINOTRANSFERASE (120 h, time 5 day): 50.5 u/L | ALBUMIN (120 h, time 5 day): 4.32 G/DL | ALKALINE PHOSPHATASE (120 h, time 5 day): 339.67 u/L | ASPARTATE AMINOTRANSFERASE (120 h, time 5 day): 88 u/L | BLOOD UREA NITROGEN (120 h, time 5 day): 17 mg/dL | CARBON DIOXIDE (120 h, time 5 day): 25 mmol/L | CHLORIDE (120 h, time 5 day): 103.83 MEQ/L | CHOLESTEROL (120 h, time 5 day): 71.33 mg/dL | CREATINE PHOSPHOKINASE (120 h, time 5 day): 281.83 u/L | CREATININE (120 h, time 5 day): 0.26 mg/dL | GLUCOSE (120 h, time 5 day): 161.67 mg/dL | LACTATE DEHYDROGENASE (120 h, time 5 day): 191.17 u/L | LIPASE (120 h, time 5 day): 10.17 u/L | PHOSPHORUS (120 h, time 5 day): 11.72 mg/dL | POTASSIUM (120 h, time 5 day): 6.76 MEQ/L | SODIUM (120 h, time 5 day): 145.17 MEQ/L | TOTAL BILIRUBIN (120 h, time 5 day): 0.2 mg/dL | TOTAL PROTEIN (120 h, time 5 day): 6.15 G/DL | URIC ACID (120 h, time 5 day): 2 mg/dL
